Test results reported in US9732070B2, “Protein kinase C inhibitors and uses thereof” (Rigel Pharmaceuticals, Inc., priority 2009, dated 2017).

System: Human primary T cells
Test: IL-2 ELISA, human primary T cell, anti-CD3+CD28 stimulation
Type: cell-based
Details: IL-2 quantified by ELISA, human primary T cells stimulated with αCD3 and αCD28, 24 hours
Method: Human primary T cell isolation and culture: Human primary T cells were prepared as follows. Whole blood was obtained from a healthy volunteer, mixed 1:1 with PBS, layered on to Ficoll Hypaque (Amersham Pharmacia Biotech, Piscataway, N.J., Catalog #17-1440-03) in 2:1 blood/PBS:ficoll ratio and centrifuged for 30 minutes at 4° C. at 1750 rpm. The cells at the serum: ficoll interface were recovered and washed twice with 5 volumes of PBS. These freshly isolated human peripheral blood mononuclear cells were cultured in Yssel's medium containing 40 U/mL IL2 in a flask pre-coated with 1 μg/mL αCD3 and 5 μg/mL αCD28 (Anti-Human CD3, BD Pharmingen Catalog #555336, Anti-Human CD28, Beckman Coulter Catalog #IM1376). The cells were stimulated for 3-4 days, then transferred to a fresh flask and maintained in RPMI (RPMI-1640 with L-Glutamine; Mediatech, Inc., Herndon Va., cat. #10-040-CM) with 10% FBS and 40 U/mL IL-2. The primary T-cells were then washed twice with PBS to remove the IL-2.
Primary T cell stimulation and IL2 ELISA: Human primary T cells (100,000 cells per well) were pre-incubated with or without test compound in Yssel's medium for 1 hour at 37° C. Cells were then stimulated by transferring them to round-bottom 96-well plates pre-coated with 1 μg/ml αCD3 and 5 μg/ml αCD28. For counter assay, cells were instead stimulated by adding 8× stock solutions of PMA and ionomycin in Yssels (for final concentrations of 0.5 ng/ml PMA and 0.1 uM ionomycin, both from Calbiochem). Cells were incubated at 37° C. for 24 hours before 100 μL supernatants were harvested for quantification of IL-2 by ELISA using Human IL-2 Duoset ELISA Kit from R and D Systems, Cat. # DY202E.

Row | SMILES | IC50 (T-cell) | IC50
1 | CC1(C)CC(Nc2nc(Nc3ccc(F)c(-n4nn[nH]c4=O)c3)ncc2F)CC(C)(C)N1 [I-2, 5-fluoro-n2-{4-fluoro-[3-(4-h)-1,2,3,4-tetrazol-5-one-1-yl]}phenyl-n4-(2,2,6,6-tetramethylpiperidin-4-yl)-2,4-pyrimidinediamine] | > 25 µM | –
2 | Cn1nnn(-c2cc(Nc3ncc(F)c(NC4CC(C)(C)NC(C)(C)C4)n3)ccc2F)c1=O [I-4] | < 0.5 µM | –
3 | CC(C)n1nnn(-c2cc(Nc3ncc(F)c(NC4CC(C)(C)N(C)C(C)(C)C4)n3)ccc2F)c1=O [I-5, 5-fluoro-n2-{4-fluoro-[3-(4-isopropyl)-1,2,3,4-tetrazol-5-one-1-yl]}phenyl-n4-(1,2,2,6,6-pentamethylpiperidin-4-yl)-2,4-pyrimidinediamine] | 0.51 to 2.99 µM | –
4 | CC1(C)CC(Nc2nc(Nc3ccc(F)c(-n4nnn(CCF)c4=O)c3)ncc2F)CC(C)(C)N1 [I-7, 5-fluoro-n2-{4-fluoro-3-[4-(2-fluoroethyl)-1,2,3,4-tetrazol-5-one-1-yl]}phenyl-n4-(2,2,6,6-tetramethylpiperidin-4-yl)-2,4-pyrimidinediamine] | – | 0.51 to 2.99 µM
5 | Cc1ccc(Nc2ncc(F)c(NC3CC(C)(C)N(C)C(C)(C)C3)n2)cc1-n1nnn(C)c1=O [I-8, 5-fluoro-n2-{4-methyl-[3-(4-methyl)-1,2,3,4-tetrazol-5-one-1-yl]}phenyl-n4-(1,2,2,6,6-pentamethylpiperidin-4-yl)-2,4-pyrimidinediamine] | < 0.5 µM | –
6 | CC(C)Oc1ccc(Nc2ncc(F)c(NC3CC(C)(C)N(C)C(C)(C)C3)n2)cc1-n1nnn(C)c1=O [I-10, 5-fluoro-n2-{4-isopropoxy-[3-(4-methyl)-1,2,3,4-tetrazol-5-one-1-yl]}phenyl-n4-(1,2,2,6,6-pentamethylpiperidin-4-yl)-2,4-pyrimidinediamine] | – | < 0.5 µM
7 | CN1C(C)(C)CC(Nc2nc(Nc3cccc(-n4nnn(C)c4=O)c3)ncc2F)CC1(C)C [I-12, 5-fluoro-n2-[3-(4-methyl)-1,2,3,4-tetrazol-5-one-1-yl]phenyl-n4-(1,2,2,6,6-pentamethylpiperidin-4-yl)-2,4-pyrimidinediamine] | 0.51 to 2.99 µM | –
8 | CN1C(C)(C)CC(Nc2nc(Nc3cc(-n4nnn(C)c4=O)c(C4CC4)cc3F)ncc2F)CC1(C)C [I-16, N2-{4-cyclopropyl-6-fluoro-[3-(4-methyl)-1,2,3,4-tetrazol-5-one-1-yl]}phenyl-5-fluoro-N4-(1,2,2,6,6-pentamethylpiperidin-4-yl)-2,4-pyrimidineamine] | < 0.5 µM | –
9 | CN1C(C)(C)CC(Nc2nc(Nc3cc(-n4nnn(C)c4=O)c(C4CC4)cc3F)ncc2C#N)CC1(C)C [I-17, 5-cyano-N2-{4-cyclopropyl-6-fluoro-[3-(4-methyl)-1,2,3,4-tetrazol-5-one-1-yl]}phenyl-N4-(1,2,2,6,6-pentamethylpiperidin-4-yl)-2,4-pyrimidinediamine] | < 0.5 µM | –
10 | CN1C(C)(C)CC(Nc2nc(Nc3ccc(OC4COC4)c(-n4nnn(C)c4=O)c3)ncc2F)CC1(C)C [I-20, 1-(5-(4-(1,2,2,6,6-pentamethylpiperidin-4-ylamino)-5fluoropyrimidine-2-ylamino)-2-(oxetan-3-yloxy)phenyl)-4-methyl-1H-tetrazol-5(4H)-one] | < 0.5 µM | –
11 | Cn1nnn(-c2cc(Nc3ncc(F)c(NC4CC(C)(C)NC(C)(C)C4)n3)ccc2OC2COC2)c1=O [I-21, 1-(5-(4-(2,2,6,6-gtetramethylpiperidin-4-ylamino)-5-fluoropyrimidin-2-ylamino)-2-(oxetan-3-yloxy)phenyl)-4-methyl-1H-tetrazol-5(4H)-one] | < 0.5 µM | –
12 | CN1C(C)(C)CC(Nc2nc(Nc3cc(F)cc(-n4nnn(C)c4=O)c3)ncc2F)CC1(C)C [I-22, 1-(3-(4-(1,2,2,6,6-pentamethylpiperidin-4-ylamion)-5fluoropyrimidin-2-ylamino)-5-fluorophenyl)-4-methyl-1H-tetrazol-5(4H)-one] | – | < 0.5 µM
13 | CN1C(C)(C)CC(Nc2nc(Nc3cc(OC4COC4)cc(-n4nnn(C)c4=O)c3)ncc2F)CC1(C)C [I-24, 1-(3-(4-(1,2,2,6,6-pentamethylpiperidin-4-ylamino)-5-fluoropyrimidin-2-ylamino)-5-(oxetan-3-yloxy)phenyl)-4-methyl-1H-tetrazol-5(4H)-one] | < 0.5 µM | –

Second part, the molecule after the results:

Row | IC50 (T-cell) | IC50 | SMILES
14 | 3 to 25 µM | – | CN1C(C)(C)CC(Nc2nc(Nc3ccc(F)c(-n4nn[nH]c4=O)c3)ncc2F)CC1(C)C [I-1, 5-fluoro-n2-{4-fluoro-[3-(4-h)-1,2,3,4-tetrazol-5-one-1-yl]}phenyl-n4-(1,2,2,6,6-pentamethylpiperidin-4-yl)-2,4-pyrimidinediamine]
15 | < 0.5 µM | – | CN1C(C)(C)CC(Nc2nc(Nc3ccc(F)c(-n4nnn(C)c4=O)c3)ncc2F)CC1(C)C [I-3, 5-fluoro-n2-{4-fluoro-[3-(4-methyl)-1,2,3,4-tetrazol-5-one-1-yl]}phenyl-n4-(1,2,2,6,6-pentamethylpiperidin-4-yl)-2,4-pyrimidinediamine]
16 | 0.51 to 2.99 µM | – | CC(C)n1nnn(-c2cc(Nc3ncc(F)c(NC4CC(C)(C)NC(C)(C)C4)n3)ccc2F)c1=O [I-6]
17 | < 0.5 µM | – | Cc1ccc(Nc2ncc(F)c(NC3CC(C)(C)NC(C)(C)C3)n2)cc1-n1nnn(C)c1=O [I-9, 5-fluoro-n2-{4-methyl-[3-(4-methyl)-1,2,3,4-tetrazol-5-one-1-yl]}phenyl-n4-(2,2,6,6-tetramethylpiperidin-4-yl)-2,4-pyrimidinediamine]
18 | – | < 0.5 µM | CC(C)Oc1ccc(Nc2ncc(F)c(NC3CC(C)(C)NC(C)(C)C3)n2)cc1-n1nnn(C)c1=O [I-11, 5-fluoro-n2-{4-isopropoxy-[3-(4-methyl)-1,2,3,4-tetrazol-5-one-1-yl]}phenyl-n4-(2,2,6,6-tetramethylpiperidin-4-yl)-2,4-pyrimidinediamine]
19 | 0.51 to 2.99 µM | – | Cn1nnn(-c2cccc(Nc3ncc(F)c(NC4CC(C)(C)NC(C)(C)C4)n3)c2)c1=O [I-13]
20 | < 0.5 µM | – | Cn1nnn(-c2cc(Nc3ncc(F)c(NC4CC(C)(C)NC(C)(C)C4)n3)c(F)cc2C2CC2)c1=O [I-14]
21 | < 0.5 µM | – | Cn1nnn(-c2cc(Nc3ncc(C#N)c(NC4CC(C)(C)NC(C)(C)C4)n3)c(F)cc2C2CC2)c1=O [I-15, 5-cyano-N2-{4-cyclopropyl-6-fluoro[3-(4-methyl)-1,2,3,4-tetrazol-5-one-1-yl]}phenyl-N4-(2,2,6,6-tetramethylpiperidin-4-yl)-2,4-pyrimidineamine]
22 | < 0.5 µM | – | CN1C(C)(C)CC(Nc2nc(Nc3ccc(OC(C)(C)C(F)(F)F)c(-n4nnn(C)c4=O)c3)ncc2F)CC1(C)C [I-18, 1-(2-(1,1,1-trifluoro-2-methylpropan-2-yloxy)-5-(4-(1,2,2,6,6-pentamethylpiperidin-4-ylamino)-5-fluoropyrimidin-2-ylamino)phenyl)-4-methyl-1H-tetrazol-5(4H)-one]
23 | < 0.5 µM | – | Cn1nnn(-c2cc(Nc3ncc(F)c(NC4CC(C)(C)NC(C)(C)C4)n3)ccc2OC(C)(C)C(F)(F)F)c1=O [I-19, 1-(2-(1,1,1-trifluoro-2-methylpropan-2-yloxy)-5-(4-(2,2,6,6-tetramethylpiperidin-4-ylamino)-5-fluoropyrimidin-2-ylamino)phenyl)-4-methyl-1H-tetrazol-5(4H)-one]
24 | < 0.5 µM | – | Cn1nnn(-c2cc(F)cc(Nc3ncc(F)c(NC4CC(C)(C)NC(C)(C)C4)n3)c2)c1=O [I-23, 1-(3-(4-(2,2,6,6-tetramethylpiperidin-4-ylamino)-5-fluoropyrimidin-2-ylamino)-5-fluorophenyl)-4-methyl-1H-tetrazol-5(4H)-one]
